Results reported in patent US20220267379A1, “NOVEL INHIBITORS OF […] AND USES THEREOF” (Ecole Polytechnique Federale de Lausanne (EPFL), priority 2019, published 2022).
Read-outs that look alike come from different tables or passages of the source.

Experiments:
KLK7 [1] = target: KLK7
Description: Head of the field: Ki [nM]
In contrast to the first generation, they contain only two cysteines cyclized with one linker. The K values are shown as mean of three measurements ±SD.
First copying reader's note: The two cysteines are bridged by a drawn acetone (C=O) linker shown above the sequence columns; the Ki cells hold the value ± its error against KLK7.

KLK7 [2] = target: KLK7; remark: listed apart in the source

Substance P C L Y M A R C S [compound 111] has a Ki (KLK7 [1]) of 10 ± 1.3 nM.

In the case of P C L Y L S C P [compound 089], the Ki (KLK7 [2]) is reported as 50 ± 5 nM.

Substance P C L Y L S R C S [compound 095] has a Ki (KLK7 [1]) of 90 ± 7 nM.
